Entries after “also recorded” stand apart in the source; their conditions may differ. Where no end group is shown, it is not given here.
How the values were obtained:
[1] = Degradation rate in rat plasma (HPLC); assay type: in vitro ADME
Experimental: Rat plasma was obtained from blood taken from sacrificed rats (Sprague-Dawley) and placed into heparinized glass vials to prevent clotting. Whole blood was centrifuged at 8000×g for 5 minutes to spin down the cells leaving the plasma as supernatant. Human whole blood samples from healthy humans were taken in lithium-heparinized vacuum tubes. The samples were placed into 2.0 mL microcentrifuge tubes and centrifuged at 8000×g for 5 min. The plasma was carefully separated from red blood cells and used immediately.
Determination of degradation rate of the C-peptides was done by measuring, with the HPLC protocol, the amount of either SorC13 or SorC27 in dosed plasma samples, after time. Sample tubes (500 uL) containing 2 uL of 2 mM Pefabloc were previously prepared for sample delivery SorC13 (1.0 mg) or SorC27 (2.0 mg) were dissolved in 1.0 mL of fresh plasma (37° C.) and placed in an incubating water bath at 37° C. A sample (100 uL) was taken immediately and quenched in sample tubes containing 2 uL of 2 mM Pefabloc, mixed vigorously and immediately frozen at −80° C. This initial sample represented time zero for the run. At successive time intervals of 5 minutes, 100 uL samples were withdrawn, quenched in Pefabloc, mixed, and frozen at −80° C. until analysis.
The rat plasma degradation rate was determined for the plasma from three different rats, while the rate of degradation in human plasma used six separate plasma samples. The data used were the means (±SEM) and were fitted to a simple one-phase exponential decay model to determine the half-life of the two peptides. This also allowed the calculation of a static degradation rate. FIG. 11 is illustrative of the rate at which SorC27 was degraded in human plasma.

[2] = system: MDA-MB-468 (MB 468) breast cancer cell line; experiment: Induction of apoptosis (APO-ONE caspase 3/7) and cell viability (CellTiter Blue); assay type: cell-based, human
Experimental: (§1) MCF-7, MDA-MB-231, MDA-MB-415, MDA-MB-468 were grown in DMEM modified with 10% (v/v) fetal bovine serum, 2 mM L-glutamine and 50 ug/mL each of penicillin and streptomycin.
(§2) The levels of apoptotic induction and cell viability were determined by multiplexing the measurements for single samples. CellTiter Blue and APO-ONE assay systems from Promega allows the determination of cell viability correlated to cell number, and induction of apoptosis. This protocol uses a fluorgenic peptide that contains a peptide recognition-sequence for caspase 3 and caspase 7, […] proteolytic enzymes of the apoptosis cascade. The CellTiter Blue reagent was added to wells in a 96-well plate containing cells under test, immediately after addition of peptide solution or vehicle. About 5000 cells were plated into the wells the day before. At the chosen time (Day 1, Day 2 etc.) the fluorescence was measured at 590 nm (emission) after excitation at 560 nm. The caspase 3/7 activity was measured (485 nm Ex/527 nm Em) in the same wells after adding 120 uL of the Apo-ONE reagent, freeze fracturing at −80° C. for 1 hr, and incubating for 1 hr at room temperature.
(§3) For this work, the concentrations of SorC13 and SorC27 used were 0 uM, 1 uM, 10 uM and 100 uM. The experiments extended over a 5 to 7 day period. All measurements were done in quadruplicate with both a blank (no cells) and control (vehicle, no peptide) used to correct the test measurements. The time-response data, and the dose-response data were plotted as means±standard error of the mean. Any statistical comparisons were done with the Student's t-test or by ANOVA analysis over the dose course. The level of statistical significance was considered to be the 95% confidence interval (i.e., p≤0.05).

[3] = system: MDA-MB-231 (MB 231) breast cancer cell line; experiment: as above; assay type: cell-based, human; set-up: key to Decline in cell viability: decreased (+); or not (−)
Experimental: as §1, §2, §3

[4] = system: MDA-MB-415 (MB 415) breast cancer cell line; experiment: as above; assay type: cell-based, human; set-up: key to Decline in cell viability: decreased (+); or not (−)
Experimental: as §1, §2, §3

[5] = system: human SKOV3 ovarian cancer tumors; experiment: SKOV3 ovarian cancer xenograft, SorC27 versus saline and CAT (Example 14); assay type: in vivo, NOD/SCID mice
Experimental: Tumor volumes (V) are calculated by caliper measurement using standard measurements of the width (W), length (L) and thickness (T) of tumors. Animals are randomized into treatment groups so that the median tumor volumes of each group were similar at the start of dosing. % T/C values, as a measure of efficacy, are determined where C refers to volume of control or untreated tumor, and T refers to volume of treated tumor.
SKOV3 cells were obtained from ATCC, cultured and expanded to suitable numbers to establish xenografts in mice and then formulated into gel pellets and grafted under the renal capsule of surrogate NOD/SCID mice in order to establish the tumors. Tumors are then permitted to develop in vivo until the majority reach 100-200 mm^3 in tumor volume, which typically requires 1-2 weeks following implantation. Once xenografts are established, they are harvested and cut into multiple uniform pieces. Sixteen to eighteen pieces were implanted subcutaneously into each NOD/SCID mouse for experimentation. After 2 days, the animals are treated with either the test peptides or CAT or combinations.
Mice implanted with SKOV3 cells as detailed above received saline (control), SorC27 (400 mg/kg), by i.p. injection every day for 12 days or CAT injections one every week. The tumor volume and body weights were measured every day. As well, general health of the animals was monitored every day. The results shown in FIG. 12 are presented in terms of tumor load normalized to body weight. […] By Day 12 there was no statistically significant difference between CAT and SorC27 at this dose.

[6] = system: T 47D breast cancer cell line; experiment: Induction of apoptosis (APO-ONE caspase 3/7) and cell viability (CellTiter Blue); assay type: cell-based, human; set-up: key to Decline in cell viability: cell viability decreased (+); or not (−)
Experimental: T 47D was cultured in RPMI medium (Sigma-Aldrich) modified with 15% fetal bovine serum, 2 mM L-glutamine, 1 mM sodium pyruvate, 0.1 mg/mL bovine insulin and penicillin plus streptomycin mixture (50 ug/mL each).
as §2, §3
To benchmark the effect of both C-type peptides to the gold-standard treatment presently used against breast cancer (Paclitaxel), SorC13, SorC27 and Paclitaxel (10 uM) were compared. Both the APO-ONE assay (Promega) and the CellTiter Blue were used on the panel of breast cancer cell lines. The data were compared directly in terms of mean response and tested for significant difference.

[7] = system: MCF 7 breast cancer cell line; experiment: as above; assay type: cell-based, human; set-up: key: cell viability decreased (+); or not (−)
Experimental: as §1, §2, §3
To benchmark the effect of both C-type peptides to the gold-standard treatment presently used against breast cancer (Paclitaxel), SorC13, SorC27 and Paclitaxel (10 uM) were compared. Both the APO-ONE assay (Promega) and the CellTiter Blue were used on the panel of breast cancer cell lines. […]

[8] = 400 mg/kg i.p. every day for 12 days

In the case of EGKLSSNDTEGGLCKEFLHPSKVDLPR [SorC27], the half-life ([1]; Sprague-Dawley, rat, plasma, 37° C.) is reported as 21 min, the “binding to plasma proteins” value ([1]; rat plasma) is reported as “doesn't bind to” and the “Apoptosis Index (1 = no effect)” value ([2]; Day 3, SorC27 10 μM) is reported as 1.1. The “Apoptosis Index (1 = no effect)” value ([2]; Day 3, SorC27 100 μM) was 1.2, the “Apoptosis Index (1 = no effect)” value ([3]; Day 3, SorC27 10 μM) was 1.5 and the “Apoptosis Index (1 = no effect)” value ([3]; Day 3, SorC27 100 μM) was 1.7. The “Decline in cell viability” value ([3]; SorC27) was “+”, the “Decline in cell viability” value ([4]; SorC27) was “+” and the “Apoptosis Index (1 = no effect)” value ([4]; SorC27 10 μM) was 1.3. The “Apoptosis Index (1 = no effect)” value ([4]; SorC27 100 μM) was 1.5, the “% T/C ratio (mean tumour volume of treated/mean tumour volume of control)” value [5, 8] was 39.9% and the “decrease in tumour growth” value [5, 8] was 60.1%. The “tumor volume normalized to body weight versus control saline” value ([5]; over 12 days, SorC27 400 mg/kg i.p. daily, CAT once every week, 400 mg/kg) was “greatly reduced tumor volume; also recorded: reduced the tumor volume significantly”.
With KEFLHPSKVDLPR [SorC13, KEFLHPSKVDLPR] the “Apoptosis Index (1 = no effect)” value ([2]; SorC13 1 uM) was 2.7, the “Apoptosis Index (1 = no effect)” value ([2]; SorC13 10 uM) was 3.3 and the “Apoptosis Index (1 = no effect)” value ([2]; SorC13 100 uM) was 2.7. For the same sequence, the “Apoptosis Index (1 = no effect)” value ([6]; SorC13 1 uM) was 2.0, the “Decline in cell viability” value ([6]; SorC13 1 uM) was “+” and the “Apoptosis Index (1 = no effect)” value ([6]; SorC13 10 uM) was 2.8. The “Decline in cell viability” value ([6]; SorC13 10 uM) was “+”, the “induction of apoptosis compared with Paclitaxel (10 uM)” value ([6]; SorC13 10 uM) was “more effective at inducing a faster and more intense apoptotic response” and the “Apoptosis Index (1 = no effect)” value ([6]; SorC13 100 uM) was 4.3. The “Decline in cell viability” value ([6]; SorC13 100 uM) was “+”, the “Decline in cell viability” value ([7]; SorC13 1 uM) was “−” and the “Decline in cell viability” value ([7]; SorC13 10 uM) was “−”. For the same sequence, the “Decline in cell viability” value ([7]; SorC13 100 uM) was “+”.
